These results are taken from patent US10231996B2, “Biocampatible polymer coated silver Prussian blue nanoparticles (SPB-NPs: Ag3[Fe(CN) 6])” (COUNCIL OF SCIENTIFIC & INDUSTRIAL RESEARCH, priority 2015, dated 2019).

For series [1], the system named is B16F10 aggressive murine melanoma tumor. The experiment in a line: In vivo B16F10 melanoma tumor model in C57BL6/J mice. The note with it: free Dox 2.5 mg/kg, after four IP injections, compared to SPB(1,1)NPs treated mice. How it is done: In vivo tumor model was carried out using male C57BL6/J mice (8-9 weeks old). Approximately, 2.5×10^5 B16F10 cells resuspended in 100 μL of sterile HBSS were subcutaneously injected to lower right abdomen of male mice. […] All the treatments were Intraperitoneally (IP) injected on alternate days over a period of 15 days. The volume of tumor was measured by using the formula (0.5×ab^2), where ‘a’ represents the longest dimension and ‘b’ represents the shortest dimension of the tumors. Also, the weight and picture of the tumors were taken after the sacrifice. […] The loss of body weight can correlate with the nonspecific side effects of Dox in normal physiological function.

Series [2] deals with E. coli. The experiment in a line: Measurement of lipid peroxidation. Type of series: cell-based. Conditions: positive control; (sample O.D/Control O.D)×100. The method, then: Lipid peroxidation was measured according to standard protocol. […] 1.5 ml of 20% acetic acid (pH 3.5), 1.5 ml of 0.8% thiobarbituric acid (in 1.1% SDS) and 0.05 ml of 20% TCA were added and mixed thoroughly. The tubes were then incubated for 60 minutes at 100° C. and 5 ml of butanol was added to each tube. The tubes were then centrifuged at 4000 rpm for 15 minutes. The pink supernatant was measures at 532 nm. The % of lipid peroxidation was measured by using the following formula: % of lipid peroxidation=(sample O.D/Control O.D)×100.

The test system of the next series is Bacillus subtilis. The experiment in a line: Colony forming units (CFU), Bacillus subtilis. Format: cell-based. Conditions: positive control 2 mg/ml, 24 hours. The method, then:
(§1) Streptomycin at 2 mg/ml concentration was used as positive control. The plated were incubated for 24 hours at 37° C. The number of colonies appeared on the surface of the LB agar plates were counted. […] We previously reported the antibacterial activity of biosynthesized silver nanoparticles (Mukherjee et al. Theranostics, 2014; 4: 316-335).

For series [3], the system named is E. coli. In words: Colony forming units (CFU), E. coli. Conditions: positive control 2 mg/ml, 24 hours. Format: cell-based. How it is done:
as §1

As to `COc1cccc2c1C(=O)c1c(O)c3c(c(O)c1C2=O)C[C@@](O)(C(=O)CO)C[C@@H]3O[C@H]1C[C@H](N)[C@H](O)[C@H](C)O1` [Dox, doxorubicin], the body weight result in series [1] is listed as “significant loss of bodyweight”.
In the series with E. coli [2], `[H]/N=C(/N)N[C@H]1[C@H](O)[C@@H](O)[C@H](O[C@@H]2O[C@@H](C)[C@](O)(C=O)[C@H]2O[C@@H]2O[C@@H](CO)[C@H](O)[C@@H](O)[C@@H]2NC)[C@@H](N/C(N)=N\[H])[C@@H]1O` [streptomycin] displayed a lipid peroxidation of 60%. Besides, the “bacterial growth (colonies)” value in the series on Bacillus subtilis and in the series on E. coli [3] was “bacterial colonies were observed” throughout.
